These results are taken from ChEMBL document CHEMBL1124675, “Synthesis and biological evaluation of a monocyclic, fully functional analogue of compactin” (J Med Chem, 1989).

A word on the IC50: it is the midpoint of a concentration-inhibition curve.

This experiment concerns the target T1, 3-hydroxy-3-methylglutaryl-coenzyme A reductase (Rattus norvegicus, UniProt P51639).
T1 sequence (P51639 whole entry): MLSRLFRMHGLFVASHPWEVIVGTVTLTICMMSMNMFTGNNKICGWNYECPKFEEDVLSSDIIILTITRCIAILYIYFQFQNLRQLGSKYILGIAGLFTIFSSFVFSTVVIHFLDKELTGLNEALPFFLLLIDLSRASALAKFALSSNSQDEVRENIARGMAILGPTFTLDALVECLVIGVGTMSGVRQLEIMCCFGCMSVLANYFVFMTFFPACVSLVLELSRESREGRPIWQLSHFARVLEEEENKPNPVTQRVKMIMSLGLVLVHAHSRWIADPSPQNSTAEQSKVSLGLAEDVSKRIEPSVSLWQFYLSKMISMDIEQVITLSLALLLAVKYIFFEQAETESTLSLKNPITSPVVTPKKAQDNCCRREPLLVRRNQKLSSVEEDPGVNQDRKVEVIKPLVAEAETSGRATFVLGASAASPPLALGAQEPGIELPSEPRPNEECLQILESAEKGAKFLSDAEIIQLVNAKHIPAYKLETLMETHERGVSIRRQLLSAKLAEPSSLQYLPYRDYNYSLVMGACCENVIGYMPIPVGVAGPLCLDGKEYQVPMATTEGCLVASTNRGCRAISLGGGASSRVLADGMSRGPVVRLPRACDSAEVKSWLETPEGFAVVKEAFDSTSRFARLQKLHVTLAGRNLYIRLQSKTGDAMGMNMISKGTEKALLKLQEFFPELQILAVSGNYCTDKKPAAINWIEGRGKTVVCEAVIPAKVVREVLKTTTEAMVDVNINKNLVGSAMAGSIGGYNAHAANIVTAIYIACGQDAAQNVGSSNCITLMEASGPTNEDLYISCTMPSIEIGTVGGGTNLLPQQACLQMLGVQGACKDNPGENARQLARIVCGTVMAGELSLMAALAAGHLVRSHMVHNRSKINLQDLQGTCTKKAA
In words: Ability of compound to inhibit the activity of 3-hydroxy-3-methylglutarylcoenzyme A(HMGR) reductase in rat liver microsomes. Further details: species or system Microsome. (In general: Microsomes from liver hold many membrane-bound enzymes, among them those of drug oxidation.)

With `CC[C@H](C)C(=O)O[C@H]1CCC=C2C=C[C@H](C)[C@H](CCC(O)C[C@@H](O)CC(=O)O)C21` (stereo not given in full), the IC50 came to 0.013 µM.

The compound `CC[C@H](C)C(=O)O[C@H]1C[C@@H](C)C[C@@H]2C=C[C@H](C)[C@H](CCC(O)C[C@@H](O)CC(=O)O)C12` (stereo not given in full) had an IC50 of 0.0016 µM. As for `O=C(O)CC(O)CC(O)CCc1ccccc1` (stereo not given), the figure is 600 µM; as for `O=C(O)C[C@H](O)CC(=O)CCc1ccccc1`, 1300 µM. As for `CC[C@H](C)C(=O)O[C@H]1CCC=C2C=C[C@H](C)[C@H](CCC(=O)C[C@@H](O)CC(=O)O)C21` (stereo not given in full), the figure is 0.032 µM.
